The numbers were not newly measured in patent US20220339088A1, “METHOD FOR DYEING KERATIN MATERIAL, COMPRISING THE USE OF AN ORGANIC C1-C6 ALKOXY SILANE AND AN ACIDIFIER” (Henkel AG & Co. KGaA, priority 2019, published 2022), which cites them from elsewhere.

For this data set the following is noted: 25° C.

Take `O=S(=O)([O-])c1ccc(N=Nc2c(O)ccc3ccccc23)cc1.[Na+]` [Acid Orange 7, sodium salt of 4-[(2-hydroxy-1-naphthyl)azo]benzene sulphonate]: the solubility in water entry was “more than 7 g/L”.
For `Nc1cc(S(=O)(=O)[O-])cc2cc(S(=O)(=O)[O-])c(N=Nc3ccccc3)c(O)c12.[Na+].[Na+]` [Acid Red 33, diantrium salt of 5-amino-4-hydroxy-3-(phenylazo)-naphthalene-2,7-disulphonate], the solubility in water was 2500 µg/mL.
On to `O=C([O-])c1c(Cl)c(Cl)c(Cl)c(Cl)c1-c1c2c(Br)cc(=O)c(Br)c-2oc2c(Br)c(O)cc(Br)c12.O=C([O-])c1c(Cl)c(Cl)c(Cl)c(Cl)c1-c1c2c(Br)cc(=O)c(Br)c-2oc2c(Br)c(O)cc(Br)c12.[Na+].[Na+]` [Acid Red 92, disodium salt of 3,4,5,6-tetrachloro-2-(1,4,5,8-tetrabromo-6-hydroxy-3-oxoxanthen-9-yl)benzoic acid], for which the solubility in water result was “greater than 10 g/L”.
For `O=C([O-])C1=NN(c2ccc(S(=O)(=O)[O-])cc2)C(=O)C1N=Nc1ccc(S(=O)(=O)[O-])cc1.[Na+].[Na+].[Na+]` (stereo not shown) [Acid Yellow 23, trisodium salt of 4,5-dihydro-5-oxo-1-(4-sulfophenyl)-4-((4-sulfophenyl)azo)-1H-pyrazole-3-carboxylic acid], the “solubility in water (in words)” value was “highly soluble”.
